Assay results: US9573957B2 (Boehringer Ingelheim International GmbH, priority 2013, dated 2017)

Assays:
[1] = test system: synthesis of LTB4 in human whole blood; test: LTB4 production inhibition assay in human whole blood (HWB); assay type: cell-based; conditions: heparinized human whole blood, 15 min at 37° C., Calcimycin 20 μM 30 min, plasma LTB4 by HTRF
Protocol: The compounds of the invention are additionally tested in a human whole blood (HWB) assay to determine their ability to inhibit the synthesis of LTB4 in a cellular system. Compounds are combined with heparinized human whole blood and incubated for 15 minutes at 37° C. Calcimycin (20 μM final, prepared in phosphate-buffered saline, pH 7.4) is then added and the mixture is incubated for another 30 minutes at 37° C. The samples are centrifuged for 5 min at low speed (1500×g) and the plasma layer is removed. Plasma LTB4 concentrations are then measured using an antibody-based homogenous time-resolved fluorescence method (CisBio, Bedford, Mass.).

human LTA4 hydrolase = human LTA4 hydrolase (Homo sapiens (Human), UniProt P09960); test: LTA4H Enzyme assay (peptidase, Arg-AMC cleavage); assay type: biochemical; conditions: LTA4H Enzyme 1 nM, Arg-AMC substrate 50 μM, room temperature 1 h, fluorescence
Protocol: The compounds of the invention are assessed for the ability to interact with human LTA4 hydrolase in an enzymatic assay that measures the ability of the enzyme to cleave the peptide bond of arginyl-aminomethylcoumarin (Arg-AMC). LTA4H Enzyme (1 nM final), Arg-AMC substrate (50 μM final), and compound are combined in a reaction buffer (50 mM Tris-HCl (pH 7.5), 100 mM KCl, 0.5% bovine serum albumin) at room temperature for 1 h. The formation of product is assessed by measuring the fluorescence of aminomethylcoumarin product (excitation wavelength 380 nm/emission wavelength 460 nm).

Sequence of human LTA4 hydrolase (P09960 whole entry): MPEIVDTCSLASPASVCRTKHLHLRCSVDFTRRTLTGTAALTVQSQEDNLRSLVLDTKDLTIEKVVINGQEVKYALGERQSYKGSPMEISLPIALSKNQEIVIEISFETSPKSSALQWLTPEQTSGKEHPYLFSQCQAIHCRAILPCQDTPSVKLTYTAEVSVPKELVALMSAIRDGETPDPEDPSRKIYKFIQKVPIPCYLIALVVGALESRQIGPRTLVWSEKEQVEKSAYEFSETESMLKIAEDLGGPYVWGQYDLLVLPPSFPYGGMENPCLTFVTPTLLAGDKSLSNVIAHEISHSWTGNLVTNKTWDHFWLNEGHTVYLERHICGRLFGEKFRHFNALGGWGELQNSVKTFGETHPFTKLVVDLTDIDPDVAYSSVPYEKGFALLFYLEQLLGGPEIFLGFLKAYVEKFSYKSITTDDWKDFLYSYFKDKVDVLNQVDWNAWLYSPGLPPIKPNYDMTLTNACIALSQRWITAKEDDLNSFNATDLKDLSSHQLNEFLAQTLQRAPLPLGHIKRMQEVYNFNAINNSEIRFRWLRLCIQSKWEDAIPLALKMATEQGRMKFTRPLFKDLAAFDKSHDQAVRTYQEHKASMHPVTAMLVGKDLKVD

| Compound | IC50 [1] [nM] | IC50 (human LTA4 hydrolase) [nM] |
| --- | --- | --- |
| CO[C@H](C)C(=O)N1CCN(CCC2COc3cc(Oc4ccc(-c5ccn[nH]5)cn4)ccc32)CC1 (stereo partly drawn) [Example 76, (R)-2-Methoxy-1-[4-(2-{6-[5-(2H-pyrazol-3-yl)-pyridin-2-yloxy]-2,3-dihydro-benzofuran-3-yl}-ethyl)-piperazin-1-yl]-propan-1-one] | 360 | 1.7 |
| OCC1CCN(Cc2ccc3cc(Oc4ccc(-c5ccn[nH]5)cn4)ccc3c2)CC1 [Example 17, (1-{6-[5-(2H-Pyrazol-3-yl)-pyridin-2-yloxy]-naphthalen-2-ylmethyl}-piperidin-4-yl)-methanol] | 160 | 0.75 |
| C[C@@H](O)C(=O)N1CCN(Cc2ccc3cc(Oc4ccc(-c5ccn[nH]5)cn4)ccc3n2)CC1 [Example 123, (R)-2-Hydroxy-1-(4-{6-[5-(2H-pyrazol-3-yl)-pyridin-2-yloxy]-quinolin-2-ylmethyl}-piperazin-1-yl)-propan-1-one] | 200 | 0.88 |
| CN(C)C(=O)N1CCN(Cc2ccc3cc(Oc4ncc(-c5ccn[nH]5)cn4)ccc3c2)CC1 [Example 34, 4-{6-[5-(2H-Pyrazol-3-yl)-pyrimidin-2-yloxy]-naphthalen-2-ylmethyl}-piperazine-1-carboxylic acid dimethylamide] | 430 | 0.81 |
| CC(C)[C@@H](O)C(=O)N1CCN(Cc2ccc3cc(Oc4ccc(-c5ccn[nH]5)cn4)ccc3n2)CC1 [Example 120, (R)-2-Hydroxy-3-methyl-1-(4-{6-[5-(2H-pyrazol-3-yl)-pyridin-2-yloxy]-quinolin-2-ylmethyl}-piperazin-1-yl)-butan-1-one] | 700 | 5.9 |
| O=C1[C@@H](O)CCN1C1CCN(Cc2coc3cc(Oc4ccc(-c5ccn[nH]5)cn4)ccc23)CC1 [Example 109, (S)-3-Hydroxy-1-(1-{6-[5-(2H-pyrazol-3-yl)-pyridin-2-yloxy]-benzofuran-3-ylmethyl}-piperidin-4-yl)-pyrrolidin-2-one] | 140 | 0.36 |
| OCC1CN(Cc2ccc3cc(Oc4ccc(-c5ccn[nH]5)cn4)ccc3c2)C1 [Example 4, (1-{6-[5-(2H-Pyrazol-3-yl)-pyridin-2-yloxy]-naphthalen-2-ylmethyl}-azetidin-3-yl)-methanol] | 160 | 0.48 |
| N#CCCNCc1ccc2cc(Oc3ccc(-c4ccn[nH]4)cn3)ccc2n1 [Example 43, 3-({6-[5-(2H-Pyrazol-3-yl)-pyridin-2-yloxy]-quinolin-2-ylmethyl}-amino)-propionitrile] | 680 | 2 |
| O=C1OCCN1C1CCN(CCC2COc3cc(Oc4ccc(-c5ccn[nH]5)cn4)ccc32)CC1 (stereo not shown) [Example 69, 3-[1-(2-{6-[5-(2H-Pyrazol-3-yl)-pyridin-2-yloxy]-2,3-dihydro-benzofuran-3-yl}-ethyl)-piperidin-4-yl]-oxazolidin-2-one] | 210 | 0.75 |
| COCC(=O)N1CC2CCC(C1)N2Cc1ccc2cc(Oc3ccc(-c4ccn[nH]4)cn3)ccc2n1 [Example 60, 2-Methoxy-1-(8-{6-[5-(2H-pyrazol-3-yl)-pyridin-2-yloxy]-quinolin-2-ylmethyl}-3,8-diaza-bicyclo[3.2.1]oct-3-yl)-ethanone] | 110 | 0.33 |
| O[C@@H]1CCN(Cc2ccc3cc(Oc4ncc(-c5ccn[nH]5)cn4)ccc3c2)C1 [Example 45, (R)-1-{6-[5-(2H-Pyrazol-3-yl)-pyrimidin-2-yloxy]-naphthalen-2-ylmethyl}-pyrrolidin-3-ol] | 310 | 2.4 |
| C[C@@H](O)C(=O)N1CCN(Cc2cn3cc(Oc4ccc(-c5ccn[nH]5)cc4)ccc3n2)CC1 [Example 94, (R)-2-Hydroxy-1-(4-{6-[4-(2H-pyrazol-3-yl)-phenoxy]-imidazo[1,2-a]pyridin-2-ylmethyl}-piperazin-1-yl)-propan-1-one] | 350 | 0.87 |
| O=C(CO)N1CCN(CCc2coc3cc(Oc4ccc(-c5ccn[nH]5)cn4)ccc23)CC1 [Example 82, 2-Hydroxy-1-[4-(2-{6-[5-(2H-pyrazol-3-yl)-pyridin-2-yloxy]-benzofuran-3-yl}-ethyl)-piperazin-1-yl]-ethanone] | 410 | 1.3 |
| CN(C(=O)CO)[C@H]1CCN(Cc2ccc3cc(Oc4ccc(-c5ccn[nH]5)cn4)ccc3c2)C1 [Example 20, 2-Hydroxy-N-methyl-N-((S)-1-{6-[5-(2H-pyrazol-3-yl)-pyridin-2-yloxy]-naphthalen-2-ylmethyl}-pyrrolidin-3-yl)-acetamide] | 150 | 0.76 |
| CC1(O)CN(Cc2ccc3cc(Oc4ncc(-c5ccn[nH]5)cn4)ccc3c2)C1 [Example 47, 3-Methyl-1-{6-[5-(2H-pyrazol-3-yl)-pyrimidin-2-yloxy]-naphthalen-2-ylmethyl}-azetidin-3-ol] | 210 | 1.9 |
| CS(=O)(=O)NC1CCN(Cc2coc3cc(Oc4ccc(-c5ccn[nH]5)cn4)ccc23)CC1 [Example 105, N-(1-{6-[5-(2H-Pyrazol-3-yl)-pyridin-2-yloxy]-benzofuran-3-ylmethyl}-piperidin-4-yl)-methanesulfonamide] | 210 | 0.81 |
| CO[C@@H](C)C(=O)N1CC2CCC(C1)N2Cc1ccc2cc(Oc3ccc(-c4ccn[nH]4)cn3)ccc2n1 [Example 53, (S)-2-Methoxy-1-(8-{6-[5-(2H-pyrazol-3-yl)-pyridin-2-yloxy]-quinolin-2-ylmethyl}-3,8-diaza-bicyclo[3.2.1]oct-3-yl)-propan-1-one] | 110 | 0.66 |
| O[C@H]1CCN(Cc2ccc3cc(Oc4ccc(-c5ccn[nH]5)cn4)ccc3c2)C1 [Example 5, (S)-1-{6-[5-(2H-Pyrazol-3-yl)-pyridin-2-yloxy]-naphthalen-2-ylmethyl}-pyrrolidin-3-ol] | 130 | 0.6 |
| CS(=O)(=O)N1CCN(Cc2ccc3cc(Oc4ccc(-c5ccn[nH]5)cn4)ccc3n2)CC1 [Example 66, 2-(4-Methanesulfonyl-piperazin-1-ylmethyl)-6-[5-(2H-pyrazol-3-yl)-pyridin-2-yloxy]-quinoline] | 430 | 1.7 |
| O=C(N1CCN(Cc2cn3cc(Oc4ccc(-c5ccn[nH]5)cc4)ccc3n2)CC1)C1(O)CC1 [Example 96, (1-Hydroxy-cyclopropyl)-(4-{6-[4-(2H-pyrazol-3-yl)-phenoxy]-imidazo[1,2-a]pyridin-2-ylmethyl}-piperazin-1-yl)-methanone] | 990 | 1.2 |
| CN(Cc1ccc2cc(Oc3ccc(-c4ccn[nH]4)cn3)ccc2c1)[C@H]1CCN(C(=O)CO)C1 [Example 23, 2-Hydroxy-1-[(S)-3-(methyl-{6-[5-(2H-pyrazol-3-yl)-pyridin-2-yloxy]-naphthalen-2-ylmethyl}-amino)-pyrrolidin-1-yl]-ethanone] | 170 | 0.9 |
| CC[C@@H](O)C(=O)N1CCN(Cc2ccc3cc(Oc4ccc(-c5ccn[nH]5)cn4)ccc3n2)CC1 [Example 134, (R)-2-Hydroxy-1-(4-{6-[5-(2H-pyrazol-3-yl)-pyridin-2-yloxy]-quinolin-2-ylmethyl}-piperazin-1-yl)-butan-1-one] | 410 | 3.1 |
| O=C(N1CCN(CCc2coc3cc(Oc4ccc(-c5ccn[nH]5)cn4)ccc23)CC1)C1(O)CC1 [Example 93, (1-Hydroxy-cyclopropyl)-[4-(2-{6-[5-(2H-pyrazol-3-yl)-pyridin-2-yloxy]-benzofuran-3-yl}-ethyl)-piperazin-1-yl]-methanone] | 530 | 0.91 |
| CC(=O)NC1CCN(Cc2ccc3cc(Oc4ncc(-c5ccn[nH]5)cn4)ccc3c2)CC1 [Example 28, N-(1-{6-[5-(2H-Pyrazol-3-yl)-pyrimidin-2-yloxy]-naphthalen-2-ylmethyl}-piperidin-4-yl)-acetamide] | 270 | 1.8 |
| CN(C(=O)CO)C1CCN(Cc2ccc3cc(Oc4ncc(-c5ccn[nH]5)cn4)ccc3c2)CC1 [Example 31, 2-Hydroxy-N-methyl-N-(1-{6-[5-(2H-pyrazol-3-yl)-pyrimidin-2-yloxy]-naphthalen-2-ylmethyl}-piperidin-4-yl)-acetamide] | 270 | 1.5 |
| CN(Cc1ccc2cc(Oc3ccc(-c4ccn[nH]4)cn3)ccc2n1)[C@H]1CCN(C(=O)CO)C1 [Example 101, 2-Hydroxy-1-[(S)-3-(methyl-{6-[5-(2H-pyrazol-3-yl)-pyridin-2-yloxy]-quinolin-2-ylmethyl}-amino)-pyrrolidin-1-yl]-ethanone] | 230 | 2 |
| O=C1[C@@H](O)CCN1C1CCN(C[C@H]2Cc3ccc(Oc4ccc(-c5ccn[nH]5)cn4)cc3O2)CC1 [Example 62, (S)-3-Hydroxy-1-(1-{(R)-6-[5-(2H-pyrazol-3-yl)-pyridin-2-yloxy]-2,3-dihydro-benzofuran-2-ylmethyl}-piperidin-4-yl)-pyrrolidin-2-one] | 340 | 0.77 |
| N#CC1(C(=O)N2CCN(Cc3ccc4cc(Oc5ccc(-c6ccn[nH]6)cn5)ccc4n3)CC2)CCCC1 [Example 147, 1-(4-{6-[5-(2H-Pyrazol-3-yl)-pyridin-2-yloxy]-quinolin-2-ylmethyl}-piperazine-1-carbonyl)-cyclopentanecarbonitrile] |  | 12 |
